Laboratory results published in patent publication US11098040B2, “Compounds and methods of use” (Ferro Therapeutics, Inc., priority 2018, dated 2021).
pIC50: −log10 of the molar value. Like-named read-outs stand apart in the source and are kept apart here.

What was measured:
A673 = assay: Cell proliferation assay, A673 (Table 25); format: cell-based; details: Homo sapiens, A673, Cell Line A673
Experimental: (§1) Cell viability assay was performed to assess the potency of the compounds in human cancer cell lines 786-O (renal cell carcinoma) and SJSA-1 (osteosarcoma). Additional cell lines, such as those described above in Example 4 as well as various others, e.g., pancreatic cancer cell lines (Panc 02.13, BxPC-3, Panc 12, Panc 02.03, Panc 6.03, PSN-1, HPAC, and Capan-1) and prostate cancer cell lines (PC-3, DU145, 22Rv1, NCI-H660, BPH1, LNCaP, BM-1604, and MDA PCa 2b), were tested for select compounds as shown in Table 25.
(§2) The cell proliferation assays for the compounds shown Table 25 was performed according to the protocols described herein, including Examples 4 and 6.

[1] = Whole blood stability, human; format: in vitro ADME
Text: (§3) The results of the assay on stability in blood and IC50 values for pancreatic cancer cell line KP4 are given below in Table 24.

[2] = Whole blood stability, mouse; format: in vitro ADME
Text: as §3

KP4 = assay: Cell viability assay (CellTiter Glo), pancreatic ductal adenocarcinoma KP4; format: cell-based, human; details: Homo sapiens
In short: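 Luminescent ATP readout (CellTiter Glo) after 96 h compound exposure, normalized to DMSO-treated cells as maximum. Compounds ran in duplicate, nine 3-fold steps from 30 μM down to 4.6 nM, final DMSO ≤0.25%; KP4 plated overnight at 1,000–10,000 cells/well. Outputs: IC50, relative IC50 or % top inhibition.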

PSN-1 = assay: Cell proliferation assay, pancreatic cancer cell line PSN-1; format: cell-based; details: Homo sapiens, PSN1
Experimental: as §1, §2

LNCaP = assay: Cell proliferation assay, prostate cancer cell line LNCaP; format: cell-based; details: Homo sapiens
Experimental: as §1, §2

MDA PCa 2b = assay: Cell proliferation assay, prostate cancer cell line MDA PCa 2b; format: cell-based
Experimental: as §1, §2

Capan-1 = assay: Cell proliferation assay, pancreatic cancer cell line Capan-1; format: cell-based; details: Homo sapiens
Experimental: as §1, §2

H2228 = assay: Cell viability assay (CellTiter Glo), lung cancer cell line H2228; format: cell-based; details: Homo sapiens, NCI-H2228; Cell Line H2228; read-out: IC50
In short: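 Seed 500-5,000 adherent or 5,000-10,000 suspension cells/well; overnight 37° C. Add compound, 9 conc., 3-fold steps, top ≤30 μM, DMSO ≤0.25%. Incubate 96 h, add CellTiter Glo, read luminescence at 10 min.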

A549 = assay: Cell viability assay, A549 cells; format: cell-based; details: Homo sapiens, A549, Cell Line A549; read-out: IC50
In short: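 Growth of A549 cells was assessed with a cell viability assay. Cells were plated at 1,000-10,000 cells/well in 96-well plates and incubated overnight at 37° C. Nine-point 3-fold DMSO dilutions, starting from 30 μM and run in duplicate, were diluted into media (final DMSO 0.25% or less). After 96 hours, CellTiter Glo luminescence was read, inhibition was calculated against DMSO controls, and IC50 was fitted in XL-fit.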

Panc 6.03 = assay: Cell proliferation assay, pancreatic cancer cell line Panc 6.03; format: cell-based
Experimental: as §1, §2

143B = assay: Cell viability assay (CellTiter Glo), osteosarcoma 143B; format: cell-based; details: Homo sapiens, Cell Line 143B, read-out: IC50
In short: (§4)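 Cells seeded at 500-5,000/well overnight, then 96 h exposure to 9-point 3-fold dilutions from up to 30 μM (4.6 nM-30 μM), final DMSO ≤0.25%. Viability by CellTiter Glo luminescence; inhibition relative to DMSO-only cells, yielding IC50, relative IC50 or % top inhibition.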

HT-1080 luc2 = assay: Cell viability assay (CellTiter Glo), fibrosarcoma HT-1080 luc2; format: cell-based; details: Homo sapiens, Cell Line HT1080, read-out: IC50
In short: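 HT-1080 luc2 fibrosarcoma cells seeded overnight, then exposed 96 h at 37° C to 9-point 3-fold dilutions (top up to 30 μM; DMSO ≤0.25% final). CellTiter Glo luminescence; % inhibition relative to DMSO-only wells, fitted to IC50, relative IC50 or % top inhibition.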

DU145 = assay: Cell proliferation assay, prostate cancer cell line DU145; format: cell-based; details: Homo sapiens, DU-145
Experimental: as §1, §2

BxPC-3 = assay: Cell proliferation assay, pancreatic cancer cell line BxPC-3; format: cell-based; details: Homo sapiens
Experimental: as §1, §2

MG-63 = assay: Cell proliferation assay, MG-63 (Table 25); format: cell-based; details: Homo sapiens
Experimental: as §1, §2

22Rv1 = assay: Cell proliferation assay, prostate cancer cell line 22Rv1; format: cell-based; details: Homo sapiens
Experimental: as §1, §2

BM-1604 = assay: Cell proliferation assay, prostate cancer cell line BM-1604; format: cell-based
Experimental: as §1, §2

MiaPaCa-2 = assay: Cell viability assay (CellTiter Glo), pancreatic carcinoma MiaPaCa-2; format: cell-based; details: Homo sapiens; Cell Line Mia PaCa-2; read-out: IC50
In short: (§5)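 MiaPaCa-2 and AsPC-1 cells were seeded overnight at 37 °C and exposed for 96 h to 9-point, 3-fold dilutions from up to 30 μM (final DMSO ≤0.25%). CellTiter Glo luminescence was read, and inhibition was calculated relative to DMSO-only cells. IC50, relative IC50 or % top inhibition was derived.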

NCI-H660 = assay: Cell proliferation assay, prostate cancer cell line NCI-H660; format: cell-based
Experimental: as §1, §2

Panc 02.03 = assay: Cell proliferation assay, pancreatic cancer cell line Panc 02.03; format: cell-based; details: Homo sapiens
Experimental: as §1, §2

PC-3 = assay: Cell proliferation assay, prostate cancer cell line PC-3; format: cell-based; details: Homo sapiens
Experimental: as §1, §2

U-2 OS = assay: Cell proliferation assay, U-2 OS (Table 25); format: cell-based; details: Homo sapiens, U2OS; Cell Line U-2 OS
Experimental: as §1, §2

BPH1 = assay: Cell proliferation assay, prostate cancer cell line BPH1; format: cell-based; details: Homo sapiens, BPH-1
Experimental: as §1, §2

Panc 12 = assay: Cell proliferation assay, pancreatic cancer cell line Panc 12; format: cell-based
Experimental: as §1, §2

Panc 02.13 = assay: Cell proliferation assay, pancreatic cancer cell line Panc 02.13; format: cell-based
Experimental: as §1, §2

HPAC = assay: Cell proliferation assay, pancreatic cancer cell line HPAC; format: cell-based; details: Homo sapiens
Experimental: as §1, §2

AsPC-1 = assay: Cell viability assay (CellTiter Glo), pancreatic adenocarcinoma AsPC-1; format: cell-based; details: Homo sapiens, ASPC1; Cell Line AsPC-1; read-out: IC50
In short: as §5

SJSA-1 [3] = assay: Cell viability assay (CellTiter Glo), osteosarcoma SJSA-1; format: cell-based; details: Homo sapiens, 96 hours
In short: as §4

SJSA-1 [4] = assay: Cell proliferation (Alamar Blue) assay, SJSA-1 osteosarcoma, with/without ferrostatin; format: cell-based, human; details: Homo sapiens, SJSA-1, Cell Line SJSA-1; read-out: IC50
In short: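 Cells seeded at 5000/well, 16-24 h, then exposed 24 h at 37° C to compound, 10-0.0005 μM in 3-fold dilutions, 1% DMSO final. Alamar Blue fluorescence (ex 540/em 590 nm) read after 1.5 h; IC50 from variable-slope sigmoidal fit.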

KHOS/NP = assay: Cell proliferation assay, KHOS/NP (Table 25); format: cell-based; details: Homo sapiens, Cell Line KHOS/NP
Experimental: as §1, §2

KSK-ES-1 = assay: Cell proliferation assay, KSK-ES-1 (Table 25); format: cell-based; details: Cell Line KSK-ES-1
Experimental: as §1, §2

Row | pIC50 (PSN-1) | pIC50 (Capan-1) | pIC50 (H2228) | pIC50 (A549) | pIC50 (Panc 6.03) | pIC50 (143B) | pIC50 (HT-1080 luc2) | pIC50 (BxPC-3) | pIC50 (MiaPaCa-2) | pIC50 (Panc 02.03) | pIC50 (Panc 02.13) | pIC50 (HPAC) | pIC50 (AsPC-1) | Structure (SMILES) | pIC50 (MG-63; MG-63, Cell Line MG-63) | pIC50 (U-2 OS) | other results
1 | – | – | – | – | – | – | – | – | – | – | – | – | – | COc1ccc2[nH]c3c(c2c1)C[C@H](C)N(C(=O)CCl)[C@H]3c1ccc(N2CCOCC2)cc1 [Compound 121] | – | – | pIC50 (A673): 7.05; Whole Blood Stability % Remaining at 37° C. Human ([1]; 0 min): 100.0%; Whole Blood Stability % Remaining at 37° C. Human ([1]; 30 min): 90.3%; Whole Blood Stability % Remaining at 37° C. Human ([1]; 60 min): 61.3%; Whole Blood Stability % Remaining at 37° C. Mouse ([2]; 0 min): 100.0%; Whole Blood Stability % Remaining at 37° C. Mouse ([2]; 30 min): 84.3%; Whole Blood Stability % Remaining at 37° C. Mouse ([2]; 60 min): 50.0%; IC50 (KP4; KP-4, 96 h, pancreatic cancer cell line KP4, 96 hours, CellTiter Glo, read-out: IC50 μM KP4): < 0.01 µM
2 | 7.70 | 6.77 | 8.77 | 5.24 | 7.77 | 8.28 | 8.32 | 7.15 | 7.45 | 7.19 | 6.92 | 7.54 | 8.12 | CCCC[C@H]1Cc2c([nH]c3ccccc23)[C@H](c2ccc(N3CCOCC3)cc2)N1C(=O)CCl [Compound 240] | 7.40 | 5.37 | pIC50 (LNCaP): 6.24; pIC50 (MDA PCa 2b): < 5.70; pIC50 (DU145): 8.21; pIC50 (MG-63; MG-63, Cell Line MG-68): < 5.52; pIC50 (22Rv1): 7.64; pIC50 (BM-1604): < 5.70; pIC50 (NCI-H660): 7.50; pIC50 (PC-3): 8.41; pIC50 (BPH1): 6.69; pIC50 (Panc 12; Cell Line Panc 11): 8.07
3 | 7.75 | 6.89 | 8.86 | 5.27 | 7.81 | 8.32 | 8.42 | 7.26 | 7.78 | 7.31 | 6.99 | 7.69 | 8.13 | CCC[C@H]1Cc2c([nH]c3ccccc23)[C@H](c2ccc(N3CCOCC3)cc2)N1C(=O)CCl [Example 118] | 7.41 | 5.30 | pIC50 (MG-63; MG-63, Cell Line MG-67): < 5.52; pIC50 (SJSA-1 [3]): 7.55; pIC50 (KP4; KP-4, Cell Line KP4, read-out: IC50): 9.04; pIC50 (Panc 12; Cell Line Panc 9): 8.19
4 | 6.76 | < 6.00 | 7.78 | 5.11 | 6.65 | – | 7.20 | 5.99 | 6.69 | 6.16 | 6.01 | 6.69 | 7.16 | COc1ccc2[nH]c3c(c2c1)C[C@H](C)N(C(=O)CCl)[C@H]3c1ccc(N2CCOCC2)cc1 [Example 121] | 6.27 | 5.31 | pIC50 (SJSA-1 [4]): 6.97; pIC50 (KHOS/NP): 7.20; pIC50 (KSK-ES-1): 6.67; pIC50 (Panc 12; Cell Line Panc 10): 7.23
